# Data from article PMC10654507, “A cleavable chimeric peptide with targeting and killing domains enhances LPS neutralization and antibacterial properties against multi-drug resistant E. coli” (Communications Biology, 2023).
# Residues, ends and D or L forms follow the SMILES beside them.
# What was measured:
# [1] = system: E. coli, S. typhimurium and S. aureus; type: cell-based; settings: tested S. aureus strains
# Description: The minimum inhibitory concentration (MIC) and minimum bactericidal concentration (MBC) of peptides were determined by the microtiter broth dilution method according to Clinical and Laboratory Standards Institute (CLSI) guidelines. […] PBS was used as the negative control. […] The MBC value was calculated as the lowest concentration of peptides resulting in a 99.9% reduction of the original inoculum. All experiments were repeated three times.
# furin = system: T1, furin; assay: Cleavage of R7 by furin in vitro (RP-HPLC); type: in vitro ADME; settings: human, recombinant human furin enzyme, furin 8 U/reaction, 25 °C, RP-HPLC peak area, read-out: Cleavage efficiency
# T1 construct: purchased NEB (New England Biolabs) P8077
# Description: Chimeric peptide R7 was treated with recombinant human furin enzyme (8 U/reaction; NEB P8077) in 50-μL reactions supplemented with in 20 mM HEPES, 0.1% Triton X-100, 1 mM CaCl2, 0.2 mM β-mercaptoethanol. The reaction mixtures were incubated at 25 °C for 65 h. An aliquot of 50 μL sample was taken at different time points, and analyzed by RP-HPLC or MALDI-TOF MS. […] The cleavage rate of R7 was calculated from the peak area as follows: Cleavage rate (%) = [(Area0 –Areat)/Area0] × 100, where 0 and t present digestion time[58].
# MDR E. coli CVCC195 = assay: Efficacy of different doses of R7 in mice challenged with MDR E. coli (survival); type: in vivo, mouse; design: key: 1 represents a mouse death; 0 represents no death; settings: Supplementary Fig. 4 source data, MDR E. coli challenge
# Description: Supplementary Figure 4. Eﬀicacy of different doses of cleavable chimeric peptide R7 in the mice
# challenged with MDR E. coli. Mice were intraperitoneally injected with 3.5, 7 or 14 μmol/kg R7 at 0
# h (five mice/group), followed by injection with MDR E. coli CVCC195 (0.5×10^9 CFU/mouse) at 6 h.
# PBS was used as control. Survival was recorded for 7 d.
# [2] = Detection of R7 in mouse blood after injection (RP-HPLC); type: in vivo; settings: R7 10 ~ 50 mg/kg intraperitoneal, intravenous or subcutaneous, blood at 5, 30, 60 and 120 min
# Description: To further study the cleavage efficiency of chimeric peptide R7, the mice were injected with R7 (10 ~ 50 mg/kg) by different routes, including intraperitoneal, intravenous or subcutaneous ones, respectively; blood was taken from the orbits at different time (5, 30, 60, and 120 min, respectively) and detected by RP-HPLC. […] Here are several conditions that may negatively impact RP-HPLC detection results: (i) R7 may bind to other proteins such as plasma protein and form aggregates; (ii) the concentration of R7 after cleavage was too low to detect target peptide by RP-HPLC; (iii) R7 may be degraded by some cellular proteases present in serum in vivo[45]. Furthermore, we used more sensitive liquid chromatograph mass spectrometer (LC-MS) to detect R7 and its possible degradation products in mice. […] We further used MALDI-TOF MS with higher resolution to analyze R7 degradation products in blood. As shown in Supplementary Table 5, R7 was cleaved into two dual-function fragments in the serum principally, including one from position 1 to 15 that can target LPS and the other mainly from position 18 to 35 that has antibacterial activity. […] In addtion, in vivo stability of peptides in blood has been well modeled by ex vivo stability in serum. […] In fact, several strategies have been proposed to improve the stability of AMPs. […]
compound,measurement,setting,value
CSCC[C@H](NC(=O)[C@H](CCCNC(=N)N)NC(=O)[C@H](Cc1c[nH]c2ccccc12)NC(=O)[C@H](C)NC(=O)[C@H](Cc1c[nH]c2ccccc12)NC(=O)[C@H](CCCNC(=N)N)NC(=O)[C@H](Cc1c[nH]c2ccccc12)NC(=O)[C@H](C)NC(=O)[C@H](CCCCN)NC(=O)[C@H](Cc1ccccc1)NC(=O)[C@H](CCCNC(=N)N)NC(=O)[C@H](CCCNC(=N)N)NC(=O)[C@H](CCCCN)NC(=O)[C@H](CCCNC(=N)N)NC(=O)[C@H](CCCCN)NC(=O)[C@H](Cc1ccccc1)NC(=O)[C@H](Cc1ccccc1)NC(=O)[C@H](CO)NC(=O)[C@H](C)NC(=O)[C@H](CCCNC(=N)N)NC(=O)[C@@H](NC(=O)[C@H](CCCCN)NC(=O)[C@H](Cc1c[nH]c2ccccc12)NC(=O)[C@H](CCCNC(=N)N)NC(=O)CNC(=O)[C@H](CCC(N)=O)NC(=O)[C@@H](NC(=O)[C@@H](N)CCCNC(=N)N)C(C)C)C(C)C)C(=O)N[C@@H](CCCCN)C(=O)N[C@@H](CCCCN)C(=O)N[C@@H](CC(C)C)C(=O)N[C@@H](C)C(=O)N[C@@H](C)C(=O)N1CCC[C@H]1C(=O)N[C@@H](CO)C(=O)O [R7] (H-RVQGRWKVRASFFKRKRRFKAWRWAWRMKKLAAPS-OH),increase of activity compared to parent peptides (LBP14-RKRR and L7),[1],≥ 2 fold
same,metabolised at 4 h,furin; digestion 4 h,14.5%
same,metabolised at 8 h,furin; digestion 8 h,17.8%
same,metabolised at 18 h,furin; digestion 18 h,29.5%
same,metabolised at 24 h,furin; digestion 24 h,36.2%
same,metabolised at 30 h,furin; digestion 30 h,42.5%
same,metabolised at 44 h,furin; digestion 44 h,52.7%
same,metabolised at 53 h,furin; digestion 53 h,57.4%
same,metabolised at 65 h,furin; digestion 65 h,61.8%
same,"efficacy of different doses, survival, event","MDR E. coli CVCC195; 3.5 μmol/kg R7, day 1, one cell per mouse",1
same,"efficacy of different doses, survival, event","MDR E. coli CVCC195; 3.5 μmol/kg R7, day 7",0
same,"efficacy of different doses, survival, event","MDR E. coli CVCC195; 7 μmol/kg R7, day 1",0
same,"efficacy of different doses, survival, event","MDR E. coli CVCC195; 7 μmol/kg R7, day 2",0
same,"efficacy of different doses, survival, event","MDR E. coli CVCC195; 7 μmol/kg R7, day 3",0
same,"efficacy of different doses, survival, event","MDR E. coli CVCC195; 7 μmol/kg R7, day 4",0
same,"efficacy of different doses, survival, event","MDR E. coli CVCC195; 7 μmol/kg R7, day 7",0
same,"efficacy of different doses, survival, event","MDR E. coli CVCC195; 14 μmol/kg R7, day 1",0
same,"efficacy of different doses, survival, event","MDR E. coli CVCC195; 14 μmol/kg R7, day 2",0
same,"efficacy of different doses, survival, event","MDR E. coli CVCC195; 14 μmol/kg R7, day 3",0
same,"efficacy of different doses, survival, event","MDR E. coli CVCC195; 14 μmol/kg R7, day 5",0
same,"efficacy of different doses, survival, event","MDR E. coli CVCC195; 14 μmol/kg R7, day 7",0
same,target peak in mouse blood,[2],not detected
